Where two headings read alike, the source gives them in different places.
Tests used:
Septoria tritici = assay: Fungicidal activity: leaf blotch of wheat, one-day protectant and three-day curative tests on wheat plants; format: in vivo; settings: Zymoseptoria tritici
Procedure: Example 16: Evaluation of Fungicidal Activity: Leaf Blotch of Wheat (Mycosphaerella graminicola; anamorph: Septoria tritici; Bayer code SEPTTR)
Wheat plants (variety Yuma) were grown from seed in a greenhouse in 50% mineral soil/50% soil-less Metro mix until the first leaf was fully emerged, with 7-10 seedlings per pot. These plants were inoculated with an aqueous spore suspension of Septoria tritici either prior to or after fungicide treatments. After inoculation the plants were kept in 100% relative humidity (one day in a dark dew chamber followed by two to three days in a lighted dew chamber) to permit spores to germinate and infect the leaf. The plants were then transferred to a greenhouse for disease to develop.
(§1) The following tables present the activity of typical compounds of the present disclosure when evaluated in these experiments. The effectiveness of the test compounds in controlling disease was determined by assessing the severity of disease on treated plants, then converting the severity to percent control based on the level of disease on untreated, inoculated plants.
as §1, with “table presents” for “tables present”

[1] = 24 h, One-Day Protectant (1 DP), 100 ppm, wheat plants (variety Yuma), read-out: SEPTTR 100 PPM 1 DP (% Disease Control rating)
[2] = 72 h, Three-Day Curative (3 DC), 100 ppm, wheat plants (variety Yuma), read-out: SEPTTR 100 PPM 3 DC (% Disease Control rating)
[3] = 24 h, read-out: SEPTTR 100 PPM 1 DP (% Disease Control rating)
[4] = 72 h, read-out: SEPTTR 100 PPM 3 DC (% Disease Control rating)

Row | melting point [°C] | SMILES | pest or weed control at 100 ppm (Septoria tritici; [1]) [%] | pest or weed control at 100 ppm (Septoria tritici; [2]) [%] | pest or weed control at 100 ppm (Septoria tritici; [3]) [%] | pest or weed control at 100 ppm (Septoria tritici; [4]) [%]
1 | 140 to 143 | CC(C)c1ccc(S(=O)(=O)n2cc(F)/c(=N\Cc3ccccc3F)n(C)c2=O)cc1 [Compound F56] | 0 to 25 | 0 to 25 | – | –
2 | 208 to 210 | Cc1cc(S(=O)(=O)n2cc(F)/c(=N\Cc3ccccc3F)n(C)c2=O)c(C)cc1Cl [Compound F58] | 0 to 25 | 0 to 25 | – | –
3 | 97 to 105 | C/N=c1\c(F)cn(S(=O)(=O)c2ccc(OC)cc2)c(=O)n1C [Compound F1, (E)-5-fluoro-1-((4-methoxyphenyl)sulfonyl)-3-methyl-4-(methylimino)-3,4-dihydropyrimidin-2(1H)-one] | 76 to 100 | 51 to 75 | – | –
4 | 180.8 to 182.2 | Cc1ccc(S(=O)(=O)n2cc(F)/c(=N\C(=O)c3ccccc3)n(C(=O)c3ccccc3)c2=O)cc1 [Compound F37, (E)-N-(3-benzoyl-5-fluoro-2-oxo-1-tosyl-2,3-dihydropyrimidin-4(1H)-ylidene)benzamide] | 0 to 25 | 0 to 25 | – | –
5 | 121.1 to 122.6 | C/N=c1\c(F)cn(S(=O)(=O)c2ccsc2)c(=O)n1C [Compound F17] | 76 to 100 | 76 to 100 | – | –
6 | 125 to 126 | CCc1ccc(S(=O)(=O)n2cc(F)/c(=N\C(=O)OC)n(C)c2=O)cc1 [Compound F47] | 0 to 25 | 0 to 25 | – | –
7 | 173 | CC(=O)/N=c1\c(F)cn(S(=O)(=O)c2cc(C)c(Cl)cc2C)c(=O)n1C [Compound F35] | 76 to 100 | 26 to 50 | – | –
8 | 135 to 136.9 | C/N=c1\c(F)cn(S(=O)(=O)c2cc(Cl)cc(Cl)c2)c(=O)n1C [Compound F20] | 26 to 50 | 0 to 25 | – | –
9 | 188 to 191 | COc1ccc(S(=O)(=O)n2cc(F)/c(=N\Cc3ccccc3F)n(C)c2=O)cc1 [Compound F53, 5-fluoro-4-((2-fluorobenzyl)imino)-1-((4-methoxyphenyl)sulfonyl)-3-methyl-3,4-dihydropyrimidin-2(1H)-one] | 0 to 25 | 0 to 25 | – | –
10 | 174 | CC(=O)/N=c1\c(F)cn(S(=O)(=O)c2ccccc2)c(=O)n1C [Compound F30] | 76 to 100 | 76 to 100 | – | –
11 | 139.2 to 140 | C/N=c1\c(F)cn(S(=O)(=O)c2ccc(OC(F)(F)F)cc2)c(=O)n1C [Compound F6] | 76 to 100 | 76 to 100 | – | –
12 | 140 to 141 | CCc1ccc(S(=O)(=O)n2cc(F)/c(=N\Cc3ccccc3F)n(C)c2=O)cc1 [Compound F55] | 0 to 25 | 0 to 25 | – | –
13 | 204 to 205.4 | C/N=c1\c(F)cn(S(=O)(=O)c2ccccc2OC)c(=O)n1C [Compound F8] | 76 to 100 | 76 to 100 | – | –
14 | 142 to 144 | C/N=c1\c(F)cn(S(=O)(=O)c2ccccc2)c(=O)n1C [Compound F2] | 76 to 100 | 51 to 75 | – | –
15 | 165 | CC(=O)/N=c1\c(F)cn(S(=O)(=O)c2ccc(C(C)C)cc2)c(=O)n1C [Compound F33] | 76 to 100 | 26 to 50 | – | –
16 | 138.9 to 140.3 | C/N=c1\c(F)cn(S(=O)(=O)c2ccc(OC)c(F)c2)c(=O)n1C [Compound F13] | 76 to 100 | 76 to 100 | – | –
17 | 158 | CCc1ccc(S(=O)(=O)n2cc(F)/c(=N\C(C)=O)n(C)c2=O)cc1 [Compound F32] | 76 to 100 | 76 to 100 | – | –

Row | SMILES | melting point [°C] | pest or weed control at 100 ppm (Septoria tritici; [1]) [%] | pest or weed control at 100 ppm (Septoria tritici; [2]) [%] | pest or weed control at 100 ppm (Septoria tritici; [3]) [%] | pest or weed control at 100 ppm (Septoria tritici; [4]) [%]
18 | Cn1c(=O)n(S(=O)(=O)c2ccccc2)cc(F)/c1=N\C(=O)Oc1ccccc1 [Compound F38] | 170 to 171 | – | – | 76 to 100 | 76 to 100
19 | COc1ccc(S(=O)(=O)n2cc(F)/c(=N\C(=O)Oc3ccccc3)n(C)c2=O)cc1 [Compound F24, phenyl (5-fluoro-1-((4-methoxyphenyl)sulfonyl)-3-methyl-2-oxo-2,3-dihydropyrimidin-4(1H)-ylidene)carbamate] | 190 to 193 | – | – | 0 to 25 | 0 to 25
20 | CC(C)c1ccc(S(=O)(=O)n2cc(F)/c(=N\C(=O)Oc3ccccc3)n(C)c2=O)cc1 [Compound F41] | 180 to 181 | – | – | 0 to 25 | 0 to 25
21 | Cc1ccc(S(=O)(=O)n2cc(F)/c(=N\C(=O)Oc3ccccc3)n(C)c2=O)cc1 [Compound F39] | 200 to 202 | – | – | 26 to 50 | 26 to 50
22 | Cn1c(=O)n(S(=O)(=O)c2cc(Cl)sc2Cl)cc(F)/c1=N\C(=O)Oc1ccccc1 [Compound F44] | 158 to 159 | – | – | 76 to 100 | 76 to 100

Reference: US10059703B2, “3-alkyl-5-fluoro-4-substituted-imino-3,4-dihydropyrimidin-2(1H)-one derivatives as fungicides” (Adama Makhteshim Ltd., priority 2012, dated 2018)
